Experimental data published in doi:10.1101/2021.06.16.448769v1 (bioRxiv, 2021).
Blank lines part the entries; values can stand above or below the compound they belong to. Bridge positions count the residues as written; N and C are the ends. Ends that are not written are not given here. Peptide text beside a SMILES is read from it. * marks the point of attachment. Palmitoyl = CCCCCCCCCCCCCCCC(=O)*

Assays:
[1] = target: human C5 (Homo sapiens, UniProt P01031); assay: SPR multi-cycle kinetics, binding to human C5
human C5, sequence (P01031 19-673 limits assumed): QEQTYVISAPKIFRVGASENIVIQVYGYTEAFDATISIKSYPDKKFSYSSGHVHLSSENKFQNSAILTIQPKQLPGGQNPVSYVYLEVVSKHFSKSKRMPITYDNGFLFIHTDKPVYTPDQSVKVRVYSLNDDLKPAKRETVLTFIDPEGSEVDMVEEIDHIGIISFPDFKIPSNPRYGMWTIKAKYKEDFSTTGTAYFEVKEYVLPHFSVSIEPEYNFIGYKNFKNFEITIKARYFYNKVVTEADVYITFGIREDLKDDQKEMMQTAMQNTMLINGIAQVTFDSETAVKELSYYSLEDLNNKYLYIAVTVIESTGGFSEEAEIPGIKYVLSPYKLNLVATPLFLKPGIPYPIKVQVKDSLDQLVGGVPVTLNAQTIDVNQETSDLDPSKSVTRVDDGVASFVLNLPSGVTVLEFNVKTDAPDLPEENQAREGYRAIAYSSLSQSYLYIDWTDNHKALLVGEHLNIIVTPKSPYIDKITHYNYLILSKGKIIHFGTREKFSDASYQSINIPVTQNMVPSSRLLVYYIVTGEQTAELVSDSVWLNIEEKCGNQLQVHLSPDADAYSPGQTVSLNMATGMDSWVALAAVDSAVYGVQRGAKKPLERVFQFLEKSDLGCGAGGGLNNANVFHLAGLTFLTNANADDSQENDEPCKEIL
human C5, sequence (P01031 678-1676 limits assumed): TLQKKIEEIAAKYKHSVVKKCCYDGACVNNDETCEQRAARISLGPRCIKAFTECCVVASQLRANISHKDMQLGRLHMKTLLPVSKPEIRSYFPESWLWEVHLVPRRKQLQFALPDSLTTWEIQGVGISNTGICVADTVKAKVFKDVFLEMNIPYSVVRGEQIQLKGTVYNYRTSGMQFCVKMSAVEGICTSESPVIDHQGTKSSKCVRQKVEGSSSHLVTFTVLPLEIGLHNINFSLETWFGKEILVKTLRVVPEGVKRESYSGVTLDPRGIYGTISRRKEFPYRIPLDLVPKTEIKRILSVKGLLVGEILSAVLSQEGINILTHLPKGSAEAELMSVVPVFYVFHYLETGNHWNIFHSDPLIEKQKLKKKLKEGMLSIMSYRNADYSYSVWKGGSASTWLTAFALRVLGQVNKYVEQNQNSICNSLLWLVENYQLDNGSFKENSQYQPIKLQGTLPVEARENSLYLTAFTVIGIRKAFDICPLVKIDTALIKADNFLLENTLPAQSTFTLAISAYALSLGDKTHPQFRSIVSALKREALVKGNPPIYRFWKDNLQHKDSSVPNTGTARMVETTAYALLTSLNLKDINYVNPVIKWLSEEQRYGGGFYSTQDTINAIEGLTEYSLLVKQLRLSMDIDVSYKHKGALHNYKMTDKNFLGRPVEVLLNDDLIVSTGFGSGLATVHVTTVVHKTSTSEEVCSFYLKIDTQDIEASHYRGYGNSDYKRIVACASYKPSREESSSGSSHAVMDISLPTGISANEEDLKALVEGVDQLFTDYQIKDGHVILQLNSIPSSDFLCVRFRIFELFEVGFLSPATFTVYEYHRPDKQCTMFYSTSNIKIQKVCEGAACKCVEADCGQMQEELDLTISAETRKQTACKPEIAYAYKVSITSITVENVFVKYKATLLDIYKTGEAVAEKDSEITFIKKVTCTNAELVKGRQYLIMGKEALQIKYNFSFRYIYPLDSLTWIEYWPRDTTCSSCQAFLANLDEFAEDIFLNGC

[2] = test system: C5 activation (C5b-6), classical pathway; assay: Classical pathway; assay type: biochemical
[3] = test system: C5 activation (C5b-6), alternative pathway; assay: Alternative pathway; assay type: biochemical
[4] = target: rat C5 protein (Rattus norvegicus, UniProt P08650); assay: SPR single-cycle kinetics, binding to rat C5
rat C5 protein, sequence (P08650 19-1681): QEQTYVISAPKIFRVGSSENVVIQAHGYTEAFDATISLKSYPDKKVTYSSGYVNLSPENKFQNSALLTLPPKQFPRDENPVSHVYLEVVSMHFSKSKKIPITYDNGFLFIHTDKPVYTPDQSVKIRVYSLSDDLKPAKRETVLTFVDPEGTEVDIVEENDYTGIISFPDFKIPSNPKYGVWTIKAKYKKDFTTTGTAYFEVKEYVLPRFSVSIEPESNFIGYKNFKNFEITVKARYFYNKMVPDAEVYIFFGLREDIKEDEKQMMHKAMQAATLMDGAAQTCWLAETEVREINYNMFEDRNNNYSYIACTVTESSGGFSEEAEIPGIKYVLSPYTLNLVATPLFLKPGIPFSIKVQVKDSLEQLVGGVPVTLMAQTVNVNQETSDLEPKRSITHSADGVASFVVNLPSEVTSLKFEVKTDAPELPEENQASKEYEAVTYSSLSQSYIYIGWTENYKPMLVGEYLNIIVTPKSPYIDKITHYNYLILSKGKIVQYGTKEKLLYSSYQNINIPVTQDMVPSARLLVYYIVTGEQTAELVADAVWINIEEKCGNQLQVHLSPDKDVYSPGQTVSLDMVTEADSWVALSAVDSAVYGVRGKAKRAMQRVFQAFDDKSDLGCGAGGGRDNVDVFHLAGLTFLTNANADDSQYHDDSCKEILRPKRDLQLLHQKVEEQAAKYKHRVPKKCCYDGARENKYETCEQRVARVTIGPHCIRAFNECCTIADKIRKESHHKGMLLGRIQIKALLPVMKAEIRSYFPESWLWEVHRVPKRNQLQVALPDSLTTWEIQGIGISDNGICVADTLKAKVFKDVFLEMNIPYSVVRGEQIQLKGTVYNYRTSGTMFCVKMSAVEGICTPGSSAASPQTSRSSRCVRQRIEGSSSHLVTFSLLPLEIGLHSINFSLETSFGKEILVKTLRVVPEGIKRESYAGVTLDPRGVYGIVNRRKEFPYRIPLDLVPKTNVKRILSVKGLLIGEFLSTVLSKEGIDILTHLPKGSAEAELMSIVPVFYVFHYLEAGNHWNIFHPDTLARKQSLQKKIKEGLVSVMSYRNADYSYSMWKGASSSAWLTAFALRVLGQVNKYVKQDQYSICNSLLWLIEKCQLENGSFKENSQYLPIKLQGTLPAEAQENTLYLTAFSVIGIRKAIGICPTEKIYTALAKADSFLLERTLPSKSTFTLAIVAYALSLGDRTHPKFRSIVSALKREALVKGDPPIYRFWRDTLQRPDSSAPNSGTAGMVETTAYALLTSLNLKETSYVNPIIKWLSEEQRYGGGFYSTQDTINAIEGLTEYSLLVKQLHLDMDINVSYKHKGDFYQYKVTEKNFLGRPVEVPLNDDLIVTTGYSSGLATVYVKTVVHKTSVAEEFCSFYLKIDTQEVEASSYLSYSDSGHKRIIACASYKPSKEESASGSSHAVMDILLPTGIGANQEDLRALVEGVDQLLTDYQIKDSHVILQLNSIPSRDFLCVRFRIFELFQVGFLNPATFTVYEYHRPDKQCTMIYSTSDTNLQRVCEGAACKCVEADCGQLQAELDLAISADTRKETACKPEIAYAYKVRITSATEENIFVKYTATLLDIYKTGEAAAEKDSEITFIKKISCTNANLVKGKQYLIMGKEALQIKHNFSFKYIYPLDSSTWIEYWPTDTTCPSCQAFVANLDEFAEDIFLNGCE

[5] = Plasma stability, human plasma; assay type: in vitro ADME; settings: plasma (lithium heparin)
[6] = Plasma stability, rat plasma; assay type: in vitro ADME; settings: plasma (lithium heparin)
[7] = Plasma stability, mouse plasma; assay type: in vitro ADME; settings: plasma (lithium heparin)
[8] = Plasma pharmacokinetics after intravenous bolus; assay type: in vivo, Sprague Dawley rats; settings: male, Sprague-Dawley, rat
[9] = Solubility; assay type: physicochemical; settings: reason for lower in vivo dose of 1 mg/kg

Kd ([1]; mean KD, SPR multi-cycle kinetics, mean of n=3): 0.41 nM
Compound: CC[C@H](C)[C@@H]1NC(=O)[C@H](C)NC(=O)[C@H](C(C)C)NC(=O)CNC(=O)[C@@H]2CSSC[C@@H](C(=O)NCC(=O)N[C@@H](Cc3c[nH]cn3)C(=O)N[C@@H](Cc3ccccc3)C(=O)N[C@@H](CC(C)C)C(=O)N[C@@H](CC(N)=O)C(=O)N[C@@H](CO)C(=O)NCC(=O)N3CCC[C@H]3C(=O)N[C@@H](CC(N)=O)C(=O)N[C@H](C(=O)N[C@@H](CO)C(=O)N3CCC[C@H]3C(=O)N[C@@H](Cc3ccc(O)cc3)C(=O)N[C@H](C(=O)N[C@@H](CO)C(=O)N[C@H](C(=O)O)[C@@H](C)O)C(C)C)[C@@H](C)CC)NC(=O)CNC(=O)[C@H](Cc3c[nH]c4ccccc34)NC(=O)[C@H](CCCNC(=N)N)NC(=O)CNC(=O)[C@H](CSSC[C@H](NC(=O)[C@@H](N)[C@@H](C)O)C(=O)N3CCC[C@H]3C(=O)N[C@@H](CCC(=O)O)C(=O)NCC(=O)N[C@@H](Cc3c[nH]c4ccccc34)C(=O)N[C@@H](CO)C(=O)N[C@@H](CCC(=O)O)C(=O)N2)NC(=O)[C@H](CCC(=O)O)NC(=O)[C@H](Cc2ccc(O)cc2)NC(=O)CNC(=O)[C@H](Cc2ccc(O)cc2)NC1=O [K92chemFE] (H-TCPEGWSECGVAIYGYECGRWGCGHFLNSGPNISPYVST-OH; disulfide 2-18, 9-23; N-terminus assumed)
effect in CP ELISA (in words) [2]: no effect
Alternative pathway ELISA Emax ([3]; Figure 6 data, n=3 replicates): 27%

binding to C5 (in words) ([1]; peptide after reduction and capping of cysteines with iodoacetamide (IAM)): entirely abrogated binding
Compound: CSCC[C@@H]1NC(=O)[C@@H]2CCCN2C(=O)[C@@H](NC(=O)[C@@H]2CSSC[C@H](NC(=O)[C@@H](N)CO)C(=O)N3CCC[C@H]3C(=O)N[C@@H](CC(=O)O)C(=O)NCC(=O)N[C@@H](Cc3ccccc3)C(=O)N[C@@H](CO)C(=O)N[C@@H](Cc3ccc(O)cc3)C(=O)N[C@@H](CCCNC(=N)N)C(=O)N[C@@H](CO)C(=O)N[C@@H](Cc3c[nH]c4ccccc34)C(=O)N[C@@H](CC(=O)O)C(=O)N[C@@H](CC(=O)O)C(=O)N[C@@H](Cc3ccccc3)C(=O)N2)CSSC[C@@H](C(=O)N[C@@H](CC(C)C)C(=O)N[C@@H](C)C(=O)N2CCC[C@H]2C(=O)N[C@@H](CCCNC(=N)N)C(=O)N[C@@H](CC(N)=O)C(=O)O)NC(=O)[C@H](CCCNC(=N)N)NC(=O)CNC(=O)[C@H](C(C)C)NC1=O [K149chemFE] (H-SCPDGFSYRSWDDFCCPMVGRCLAPRN-OH; disulfide 2-15, 16-22 (inferred); N-terminus assumed)
effect in CP ELISA (in words) [2]: non-functional, silent binder of C5
effect in AP ELISA (in words) [3]: non-functional, silent binder of C5

cross reactivity with rat C5 (in words) [4]: specific for human C5
remaining at 24 h, 6.25 µg/mL [5]: 76%
remaining at 24 h, 6.25 µg/mL [6]: 56%
remaining at 24 h, 6.25 µg/mL [7]: 22%
clearance ([8]; 10 mg/kg): 10.6 mL/min/kg
half-life ([8]; 10 mg/kg): 17 min
Compound: GCPPGYKSGVDCSPGSECKWGCYAVDGRRYGGYGADSGVGS-OH (disulfide 2-18, 12-22 (inferred)) [K57chemFE]

fold reduction in affinity for C5 relative to parent ([1]; SPR, relative to unmodified parent peptide): four-fold reduction
clearance ([8]; 1 mg/kg): 0.8 mL/min/kg
half-life ([8]; 1 mg/kg): 96 min
solubility (in words) [9]: poor solubility
Compound: Palmitoyl-GSSSGCPPGYKSGVDCSPGSECKWGCYAVDGRRYGGYGADSGVGS-OH (disulfide 6-22, 16-26 (inferred)) [K57chemFE-palmitoyl]
